One test has as its target T1, human FAAH (Homo sapiens, UniProt O00519).
T1 construct: made in house; host or cells: E. coli
T1 sequence (O00519 1-579): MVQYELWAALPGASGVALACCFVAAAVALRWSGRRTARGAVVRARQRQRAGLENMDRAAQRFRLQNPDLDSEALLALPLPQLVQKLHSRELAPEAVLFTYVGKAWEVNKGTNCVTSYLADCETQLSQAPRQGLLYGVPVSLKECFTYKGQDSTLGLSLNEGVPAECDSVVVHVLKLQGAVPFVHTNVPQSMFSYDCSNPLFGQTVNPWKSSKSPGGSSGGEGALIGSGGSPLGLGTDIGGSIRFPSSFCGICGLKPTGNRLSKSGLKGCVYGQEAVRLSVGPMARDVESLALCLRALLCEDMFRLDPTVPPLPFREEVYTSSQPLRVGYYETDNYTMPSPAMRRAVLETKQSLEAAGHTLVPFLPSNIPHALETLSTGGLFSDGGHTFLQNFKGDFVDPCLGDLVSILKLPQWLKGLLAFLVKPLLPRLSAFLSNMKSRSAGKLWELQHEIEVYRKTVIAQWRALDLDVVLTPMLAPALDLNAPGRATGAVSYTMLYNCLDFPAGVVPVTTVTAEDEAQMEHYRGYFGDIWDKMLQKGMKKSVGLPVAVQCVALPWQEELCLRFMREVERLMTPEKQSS
Put plainly: FAAH assay, human FAAH enzyme inhibition (kinact/Ki). To be noted: oleamide substrate 50 μM, 30° C., read-out: hFAAH kinact/Ki. Format: biochemical. The procedure:
(§1) The FAAH assay was carried out in 384-well clear polystyrene plates (Evergreen Scientific) in a total volume of 50 μl per well in a manner similar to that described by Mileni et al., Proc. Nat. Acad. Sci. 2008, 105, 12820-12824. All percents are by volume. Serial dilutions of compound were initially prepared in 100% DMSO, and then diluted two-fold into HPLC-grade H2O to give 50% DMSO. To each well, was placed the reaction mixture (40 μl) containing 1-4 nM FAAH, 50 mM NaPi, pH 7.4, 3 mM α-ketoglutarate, 0.15 mM NADH, 7.5 U/ml glutamate dehydrogenase, 2 mM ADP, 1 mM EDTA, and 0.1% Triton X-100 (The concentration shown for each component is the final concentration in the assay). To this mixture, was added 5 μl of a compound of Examples 1 to 56 at various concentrations in 50% DMSO (or 5 μl 50% DMSO for controls). This was immediately followed by the addition of 5 μl oleamide (500 μM) dissolved in 75% EtOH/25% DMSO and the reaction mixture was mixed for 1.5 min. The final concentrations of DMSO and EtOH in the assay were each 7.5%. The reactions were incubated at 30° C. and the absorbance at 340 nm was collected over a period of 90 min with readings taken in 30-second intervals using SpectraMax Plus^384 Microplate Spectrophotometer (Molecular Devices, Sunnyvale, Calif.). The human FAAH and rat FAAH used in the assay was prepared as described in the patent application WO 2006/067613 using wild-type E. coli cells transformed in St. Louis, Mo., U.S.A. The purity of the enzyme was greater than 98% based on an analysis by SDS-polyacrylamide gel electrophoresis followed by Coomassie Blue staining.
(§2) Reaction progress curves were corrected for the non-enzymatic oxidation of NADH by subtraction of absorbancies at each time point obtained from control reactions containing no FAAH enzyme. The loss of enzyme activity as a function of time is well-described by the following mathematical equation (1) for a mono-exponential decay: […]
(§3) where At represents the absorbance at time t, A0 represents the absorbance at time zero, and C represents a constant. Observed rates of enzyme inactivation (kobs) were determined from the non-linear reaction progress curves by fitting the corrected absorbancies to an equation for a mono-exponential decay using the third-party Microsoft Excel plug-in, XLfit (IDBS Limited). Secondary plots of kobs vs. inhibitor concentration were prepared from kobs values obtained from progress curves. Second-order rates for enzyme inactivation, expressed as kinact/Ki (M^−1s^−1), were calculated from the slopes from linear regression analysis of the secondary plot of kobs vs. inhibitor concentration as defined in following equation (2), where [I]<<Ki:
(§4) The concentration of substrate in the assay was equal to the Km for oleamide of 50 μM. Therefore, reported kinact/Ki values are obtained by multiplying resulting slopes by a factor of two (i.e. slope=kinact/(Ki*2)).

In a further test the target is T2, rat FAAH (Rattus norvegicus, UniProt P97612).
T2 construct: made in house; host or cells: E. coli
T2 sequence (P97612 1-579): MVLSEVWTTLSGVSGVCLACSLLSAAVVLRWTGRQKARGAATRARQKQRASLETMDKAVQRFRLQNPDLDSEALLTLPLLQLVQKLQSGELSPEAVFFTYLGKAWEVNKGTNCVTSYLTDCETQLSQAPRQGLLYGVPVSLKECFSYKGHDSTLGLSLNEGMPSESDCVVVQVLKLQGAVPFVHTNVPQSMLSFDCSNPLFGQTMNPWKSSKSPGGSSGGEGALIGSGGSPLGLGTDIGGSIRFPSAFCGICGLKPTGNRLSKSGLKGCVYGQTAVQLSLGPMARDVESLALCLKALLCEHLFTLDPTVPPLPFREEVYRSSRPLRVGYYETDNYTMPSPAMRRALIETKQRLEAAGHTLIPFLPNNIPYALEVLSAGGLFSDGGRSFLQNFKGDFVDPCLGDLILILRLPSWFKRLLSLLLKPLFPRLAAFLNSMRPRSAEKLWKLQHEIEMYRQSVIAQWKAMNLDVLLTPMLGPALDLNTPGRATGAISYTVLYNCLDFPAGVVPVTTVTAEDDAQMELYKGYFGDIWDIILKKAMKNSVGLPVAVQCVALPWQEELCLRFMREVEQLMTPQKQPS
Put plainly: FAAH assay, rat FAAH enzyme inhibition (kinact/Ki). Format: biochemical. The conditions noted are these: oleamide substrate 50 μM, 30° C., read-out: rFAAH kinact/Ki. On the procedure:
as §1, §2, §3, §4

In the next test the test system is Male Sprague-Dawley Rats. In words: In vivo Complete Freund's Adjuvant (CFA) efficacy assay. The arrangement: species or system rat; key: (+) indicates the test compound was determined to be efficacious at 3 mpk, oral dosing; (−) indicates the test compound was determined to not be efficacious at 3 mpk, oral dosing. The conditions noted are these: 3 mpk, oral dosing; inhibition of allodynia (PWT) four hours postdose vs vehicle, p<0.05. On the procedure: For additional information on the CFA efficacy assay, see Jayamanne et al., Brit. J. Pharmacol. 2006, 147, 281-288. Experiments were performed on adult Male Sprague-Dawley Rats (200 g-250 g). Inflammation was induced in the left hindpaw of the rat by an intra-plantar injection of 150 uL Complete Freund's Adjuvant (CFA) (SIGMA F5881). The CFA injection immediately induces local inflammation, paw swelling, and pain that persists for at least two weeks post-injection. Baseline paw withdrawal threshold (PWT) was measured to determine the percent inhibition of allodynia using a set of Von Frey Hairs on day 4 post injection as illustrated by the Dixon Up and Down Method (W. J. Dixon, Ann. Rev. Pharmacol. Toxicol. 1980, 20:441-462). […] Test compound was administered at a concentration of 3 mg/kg (mpk) orally with the dosing vehicle 5% N,N′-Dimethylacetamide (SIGMA D137510) and 95% (40% 2-hydroxypropyl-beta-cyclodextrin in water) (SIGMA H107). Following Dose administration PWT threshold was evaluated again at four hours postdose. The Sprague-Dawley rats used in this assay were purchased from Harlan, 8520 Allison Pointe Blvd., Indianapolis, Ind., 46250, U.S.A. Sprague-Dawley rats are an outbred breed of albino rats first produced by the Sprague Dawley farms in Madison, Wis., U.S.A.
Percent Inhibition of Allodynia was determined by the formula: […]
ΔPWT measurements were averaged for each treatment group and statistical comparisons between groups were made using ANOVA and Dunnett's two-tailed test. […]

Data on 13 molecules can be found in patent publication US20100113465A1, “7-AZASPIRO[3.5]NONANE-7-CARBOXAMIDE COMPOUNDS” (Pfizer Inc., priority 2008, published 2010).

Consider `Cc1noc(NC(=O)N2CCC3(CC2)CC(c2noc(-c4ccc(OC(F)(F)F)cc4)n2)C3)c1C` [Example 15, N-(3,4-dimethylisoxazol-5-yl)-2-{5-[4-(trifluoromethoxy)phenyl]-1,2,4-oxadiazol-3-yl}-7-azaspiro[3.5]nonane-7-carboxamide], for which the kinact/KI at human FAAH was 3460 M⁻¹ s⁻¹; on rat FAAH it was 1730 M⁻¹ s⁻¹. Moreover, the “CFA Efficacy” value with Male Sprague-Dawley Rats is “(+)”.

As to `Cc1cc(F)cc(C2CC3(CCN(C(=O)Nc4onc(C)c4C)CC3)C2)c1` [Example 18, N-(3,4-dimethylisoxazol-5-yl)-2-(3-fluoro-5-methylphenyl)-7-azaspiro[3.5]nonane-7-carboxamide], the kinact/KI worked out at 2640 M⁻¹ s⁻¹ on human FAAH and 1560 M⁻¹ s⁻¹ on rat FAAH. Moreover, the “CFA Efficacy” value in the test with Male Sprague-Dawley Rats is given as “(−)”.

For the molecule `Cc1noc(NC(=O)N2CCC3(CC2)CC(c2cccc(F)c2F)C3)c1C` [Example 19, 2-(2,3-difluorophenyl)-N-(3,4-dimethylisoxazol-5-yl)-7-azaspiro[3.5]nonane-7-carboxamide], the kinact/KI at human FAAH worked out at 2350 M⁻¹ s⁻¹; on rat FAAH, 1370 M⁻¹ s⁻¹. For the same molecule, the “CFA Efficacy” value in the test on Male Sprague-Dawley Rats is “(+)”.

As to `Cc1noc(NC(=O)N2CCC3(CC2)CC(c2ccc(Cl)c(Cl)c2)C3)c1C` [Example 20, 2-(3,4-dichlorophenyl)-N-(3,4-dimethylisoxazol-5-yl)-7-azaspiro[3.5]nonane-7-carboxamide], the kinact/KI at human FAAH turned out to be 4550 M⁻¹ s⁻¹; on rat FAAH, 3470 M⁻¹ s⁻¹. For the same molecule, the “CFA Efficacy” value with Male Sprague-Dawley Rats was “(+)”.

`Cc1noc(NC(=O)N2CCC3(CC2)CC(c2cc(Cl)ccc2F)C3)c1C` [Example 21, 2-(5-chloro-2-fluorophenyl)-N-(3,4-dimethylisoxazol-5-yl)-7-azaspiro[3.5]nonane-7-carboxamide]: the kinact/KI stood at 2700 M⁻¹ s⁻¹ at human FAAH and 1510 M⁻¹ s⁻¹ at rat FAAH. The “CFA Efficacy” value with Male Sprague-Dawley Rats is on record as “(+)”.

As to `CCc1cccc(C2CC3(CCN(C(=O)Nc4onc(C)c4C)CC3)C2)c1` [Example 22, N-(3,4-dimethylisoxazol-5-yl)-2-(3-ethylphenyl)-7-azaspiro[3.5]nonane-7-carboxamide], the kinact/KI on human FAAH came to 5670 M⁻¹ s⁻¹; at rat FAAH, 1340 M⁻¹ s⁻¹. For the same molecule, in the test with Male Sprague-Dawley Rats, the “CFA Efficacy” value is “(−)”.

`Cc1noc(NC(=O)N2CCC3(CC2)CC(F)(c2cccc(OC(F)(F)F)c2)C3)c1C` [Example 23, N-(3,4-dimethylisoxazol-5-yl)-2-fluoro-2-[3-(trifluoromethoxy)phenyl]-7-azaspiro[3.5]nonane-7-carboxamide]: the kinact/KI on human FAAH was 2820 M⁻¹ s⁻¹; at rat FAAH, 1710 M⁻¹ s⁻¹. Moreover, the “CFA Efficacy” value in the test on Male Sprague-Dawley Rats is on record as “(+)”.

As to `Cn1nnnc1NC(=O)N1CCC2(CC1)CC(c1cccc(C(F)(F)F)c1)C2` [Example 24, N-(1-methyl-1H-tetrazol-5-yl)-2-[3-(trifluoromethyl)phenyl]-7-azaspiro[3.5]nonane-7-carboxamide], the values for the kinact/KI at human FAAH and on rat FAAH were 12400 M⁻¹ s⁻¹ and 5750 M⁻¹ s⁻¹, respectively. For the same molecule, the “CFA Efficacy” value with Male Sprague-Dawley Rats was “(+)”.

Consider `Cc1noc(NC(=O)N2CCC3(CC2)CC(c2cccc(OCCOc4ccc(Cl)cc4)c2)C3)c1C` [Example 25, 2-{3-[2-(4-chlorophenoxy)ethoxy]phenyl}-N-(3,4-dimethylisoxazol-5-yl)-7-azaspiro[3.5]nonane-7-carboxamide], for which the kinact/KI at human FAAH was 2860 M⁻¹ s⁻¹; on rat FAAH, 2340 M⁻¹ s⁻¹. The “CFA Efficacy” value with Male Sprague-Dawley Rats was “(+)”.

For `Cc1noc(NC(=O)N2CCC3(CC2)CC(c2cccc(OCCOc4ccccc4)c2)C3)c1C` [Example 26, N-(3,4-dimethylisoxazol-5-yl)-2-[3-(2-phenoxyethoxy)phenyl]-7-azaspiro[3.5]nonane-7-carboxamide], the kinact/KI at human FAAH came out at 4480 M⁻¹ s⁻¹; on rat FAAH, 1700 M⁻¹ s⁻¹. Further, the “CFA Efficacy” value with Male Sprague-Dawley Rats is given as “(+)”.

Regarding `Cc1noc(NC(=O)N2CCC3(CC2)CC(c2cccc(OCCOc4ccccc4Cl)c2)C3)c1C` [Example 27, 2-{3-[2-(2-chlorophenoxy)ethoxy]phenyl}-N-(3,4-dimethylisoxazol-5-yl)-7-azaspiro[3.5]nonane-7-carboxamide], the kinact/KI amounted to 2940 M⁻¹ s⁻¹ on human FAAH and 1810 M⁻¹ s⁻¹ on rat FAAH. Further, the “CFA Efficacy” value with Male Sprague-Dawley Rats is listed as “(+)”.

Consider `Cc1noc(NC(=O)N2CCC3(CC2)CC(c2cccc4c2OC(F)(F)O4)C3)c1C` [Example 28, 2-(2,2-difluoro-1,3-benzodioxol-4-yl)-N-(3,4-dimethylisoxazol-5-yl)-7-azaspiro[3.5]nonane-7-carboxamide], for which the kinact/KI on human FAAH came out at 2220 M⁻¹ s⁻¹; at rat FAAH, 1060 M⁻¹ s⁻¹. Further, in the test on Male Sprague-Dawley Rats, the “CFA Efficacy” value was “(+)”.

Take `Cc1noc(NC(=O)N2CCC3(CC2)CC(c2cccc(Cl)c2F)C3)c1C` [Example 29, 2-(3-chloro-2-fluorophenyl)-N-(3,4-dimethylisoxazol-5-yl)-7-azaspiro[3.5]nonane-7-carboxamide]: the kinact/KI worked out at 3840 M⁻¹ s⁻¹ on human FAAH and 2470 M⁻¹ s⁻¹ on rat FAAH. The “CFA Efficacy” value in the test with Male Sprague-Dawley Rats is “(+)”.
